Data on 1 compound can be found in the NIST ThermoML archive (doi:10.1016/j.tca.2018.05.020).

The nature of data set [1]: Molar enthalpy of transition or fusion. As to conditions: Crystal; DSC.
For data set [2] the following is noted: DSC. (DSC measures the heat that a sample takes up or gives off during a temperature scan.)

Molecules are shown by their SMILES. ± gives the expanded uncertainty stated by the source.

As to `CNC(=O)c1ccc(N2C(=S)N(c3ccc(C#N)c(C(F)(F)F)c3)C(=O)C2(C)C)cc1F` [Enzalutamide], in data set [1], the “Molar enthalpy of transition or fusion” value stood at 8.61 ± 0.222 kcal/mol. For the same compound, the Triple point temperature in data set [2] (Crystal) is listed as 469.15 ± 1 K. The Glass transition temperature in data set [2] (Glass) stood at 85.00 ± 1 °C.
